{"source": "paper PMC12380353", "about": "“MK-8527 is a novel inhibitor of HIV-1 reverse transcriptase translocation with potential for extended-duration dosing” (PLOS Biology, 2025)", "key": {"PK in rats": {"test": "PK in rats", "format": "in vivo", "conditions": "male, Wistar Hannover, plasma, rat", "protocol": "All animal procedures were conducted according to the highest ethical standards using procedures approved by the Institutional Animal Care and Use Committee of Merck & Co., Rahway, NJ, USA (APS 2016-600774-FEB). Fasted male Wistar Hannover rats (n = 3 in each arm) weighing approximately 325 g were used for the PK studies. All blood samples were collected in EDTA-coated tubes at the time points specified below. For the IV arm of the study, a cannula was implanted in the jugular vein for dose administration and blood sampling. […] For the oral arm of the study, a solution of MK-8527 was administered by oral gavage at 2 mg/kg in 0.5% methylcellulose in water to fasted rats. […] The concentrations of MK-8527 in plasma were determined by LC–MS/MS assays following a protein precipitation step. Aliquots (50 µL) of plasma were precipitated by addition of 150 µL of acetonitrile solution-containing internal standard (IS), followed by centrifugation at 3,000 rpm for 10 min. A 75-µL aliquot of the supernatant was transferred into a 96-well plate, and 5 µL of each sample was used for analysis. LC–MS/MS analysis was performed on a Transcend LC system with HTS PAL CTC autosampler (Thermo Fisher Scientific, Waltham, MA, USA) interfaced to an API-5000 mass spectrometer using the turbo ion spray interface (Sciex, Framingham, MA, USA). Separation of MK-8527 was achieved on an Xselect HSS XP T3 column (50 × 2.1 mm, 2.5 µm; […] The chromatography for plasma samples was run using gradient elution as follows: the column was equilibrated with 100% A. […] The total run time was 4.15 min. Quantification was done by monitoring the transition of m/z 309 to m/z 169 or 133 for MK-8527. The method was linear across a concentration range of 2–10,000 ng/mL in plasma."}, "HIV-1": {"test_system": "HIV-1", "test": "Multicycle antiviral assay in MT4-GFP cells", "format": "cell-based", "conditions": "10% NHS", "protocol": "Compounds were evaluated for their ability to prevent HIV-1 infection in MT4-GFP cells as described in Diamond, and colleagues. HIV-1 replication was monitored using the MT4-gag-GFP clone D3, and MT4 cells with a GFP reporter gene, the expression of which is dependent on the HIV-1 expressed proteins tat and rev. […] Proviral variants used for these studies were generated by site-directed mutagenesis in the WT R8 proviral plasmid. Virus was produced by transfection in 293T cells.\nBriefly, MT4-GFP cells were cultured overnight with the appropriate HIV-1 variant at an approximate multiplicity of infection of 0.01. After approximately 19 h of infection, the cells were washed and resuspended in assay media containing 10% normal human serum (NHS) before being added to 384-well compound plates containing 10-point serial 3-fold dilutions of compound. Controls included no inhibitor (dimethyl sulfoxide [DMSO] only) and a combination of 3 antiviral agents, efavirenz, indinavir, and an integrase strand transfer inhibitor, L-002254051, at final concentrations of 4 µM each. The infected or treated cells were cultured at 37 °C, 5% CO2, and 90% humidity until evaluation of infection was conducted at approximately 48 and 72 h post-infection by counting the number of GFP cells in each well using an Acumen eX3 scanner (SPT Labtech; Melbourn, UK). The reproductive ratio, R, was calculated by dividing the number of infected cells at 72 h by the number at 48 h post-infection. The percentage inhibition caused by a test compound was calculated by the following formula:\ninhibition = [1−(Rtest compound − Rpositive control)]/(RDMSO only − Rpositive control) × 100%\\]\nThe dose–response curves of each test compound were plotted as percentage inhibition versus the test concentration."}}, "data": [{"smiles": "C#C[C@]1(CO)O[C@@H](n2ccc3c(N)nc(Cl)nc32)C[C@@H]1O", "note": "[Compound 12, (2R,3S,5R)-5-(4-amino-2-chloro-7H-pyrrolo[2,3-d]pyrimidin-7-yl)-2-ethynyl-2-(hydroxymethyl)tetrahydrofuran-3-ol]", "values": [{"measurement": "clearance", "setting": "PK in rats; IV 1.0 mg/kg, read-out: CLp", "result": "18.1 ± 3.3", "unit": "mL/min/kg"}, {"measurement": "Vd", "setting": "PK in rats; IV 1.0 mg/kg, read-out: Vdss", "result": "2 ± 0.3", "unit": "L/kg"}, {"measurement": "bioavailability", "setting": "PK in rats; oral 2 mg/kg", "result": 57, "unit": "%"}, {"measurement": "half-life", "setting": "PK in rats; IV 1.0 mg/kg, read-out: t½ (converted)", "result": "2.3 ± 1.3", "unit": "h"}, {"measurement": "IC50", "setting": "HIV-1; Human immunodeficiency virus 1, WT HIV-1, multicycle assay", "result": 3.4, "unit": "nM"}, {"measurement": "MT4-GFP IC50", "setting": "HIV-1; WT HIV-1, multicycle assay", "result": "single-digit nanomolar potency"}, {"measurement": "IC50", "setting": "HIV-1; WT HIV-1, multicycle assay, listed as MK-8527", "result": "3.37 ± 1", "unit": "nM"}]}]}
